SMILES strings stand for the structures.

The values below come from US11439707B2, “Hypocrellin derivative substituted both in a peri-position and in 2-position by amino, preparation method, and application thereof” (priority 2017, dated 2022).

A short description of data set [1]: singlet oxygen efficiency test, reference rose bengal. It is filed as physicochemical.
Data set [2] is described as follows: absorption spectrum (maximum absorption wavelength, molar extinction coefficient). The format is physicochemical.

Consider `COc1c(O)c2c(=O)cc(OC)c3c4c(OC)cc(=O)c5c(NC(CCC(=O)O)C(=O)O)c(NC(CCC(=O)O)C(=O)O)c6c(c(c1C(C(C)=O)C(C)=C6)c23)c54` (stereo not drawn) [HB-28a], for which the singlet oxygen yield in data set [1] came to 18%. In data set [2], the maximum absorption wavelength turned out to be 621 nm and the molar extinction coefficient is 20,500 M^−1cm^−1.

For the molecule `COc1c(NO)c2c(=O)cc(OC)c3c4c(OC)cc(=O)c5c(O)c(NO)c6c(c(c1CC(C)=C6)c23)c54` [HC-37b], the singlet oxygen yield in data set [1] was 31%. Moreover, in data set [2], the maximum absorption wavelength worked out at 622 nm and the molar extinction coefficient is recorded as 31,500 M^−1cm^−1.

`COc1c(NC(CS)C(=O)O)c2c(=O)cc(OC)c3c4c(OC)cc(=O)c5c(O)c(NC(CS)C(=O)O)c6c(c(c1C(C(C)=O)C(C)=C6)c23)c54` (stereo not drawn) [HB-25b] registered a singlet oxygen yield in data set [1] of 20%. In addition, in data set [2], the maximum absorption wavelength was 629 nm and the molar extinction coefficient was 20,500 M^−1cm^−1.

As to `COCCOCCOC(=O)C1CCCC1Nc1c(NC2CCCC2C(=O)OCCOCCOC)c2c(=O)cc(OC)c3c4c(OC)cc(=O)c5c(O)c(OC)c6c(c(c1C=C(C)C6C(C)=O)c23)c54` (stereo not drawn) [HB-21a-PEG1], the singlet oxygen yield in data set [1] is on record as 30%. In data set [2], the maximum absorption wavelength amounted to 624 nm and the molar extinction coefficient is 31,500 M^−1cm^−1.

`COc1c(NCCOC(=O)N2CC(=O)NC(=O)C2)c2c(=O)cc(OC)c3c4c(OC)cc(=O)c5c(O)c(NCCOC(=O)N6CC(=O)NC(=O)C6)c6c(c(c1C(C(C)=O)C(C)=C6)c23)c54` (stereo not drawn) [HB-40b] registered a singlet oxygen yield in data set [1] of 34%. In data set [2], the maximum absorption wavelength is recorded as 624 nm and the molar extinction coefficient is 31,500 M^−1cm^−1.

Turning to `COCCOC(=O)C1CCCC(Nc2c(NC3CCCC(C(=O)OCCOC)C3)c3c(=O)cc(OC)c4c5c(OC)cc(=O)c6c(O)c(OC)c7c(c(c2C=C(C)C7C(C)=O)c34)c65)C1` (stereo not drawn) [HB-15a-PEG1], in data set [1], the singlet oxygen yield amounted to 30%. Also, in data set [2], the maximum absorption wavelength came to 624 nm and the molar extinction coefficient was 30,000 M^−1cm^−1.

`COc1c2c3c4c(c(NC5CCC(C(=O)O)CC5)c(=O)c5c(O)cc(OC)c(c6c(OC)cc(NC7CCC(C(=O)O)CC7)c(c1=O)c63)c54)C=C(C)C2C(C)=O` (stereo not drawn) [HB-14d] gave a singlet oxygen yield in data set [1] of 24%. Further, in data set [2], the maximum absorption wavelength was 623 nm and the molar extinction coefficient is recorded as 27,000 M^−1cm^−1.

`COc1c(O)c2c(=O)cc(OC)c3c4c(OC)cc(=O)c5c(NCC(=O)O)c(NCC(=O)O)c6c(c(c1CC(C)=C6)c23)c54` [HC-7a]: in data set [1], the singlet oxygen yield is given as 28%. In data set [2], the maximum absorption wavelength is given as 620 nm and the molar extinction coefficient is given as 27,500 M^−1cm^−1.

In turn, `COCCOC(=O)C1CCC(Nc2c(NC3CCC(C(=O)OCCOC)CC3)c3c(=O)cc(OC)c4c5c(OC)cc(=O)c6c(O)c(OC)c7c(c(c2C=C(C)C7C(C)=O)c34)c65)CC1` (stereo not drawn) [HB-14a-PEG1] returned a singlet oxygen yield in data set [1] of 32%. Also, in data set [2], the maximum absorption wavelength stood at 622 nm and the molar extinction coefficient is 30,500 M^−1cm^−1.

Take `COc1c2c3c4c(c(NCCNCCOCCOCCOCCOCCO)c(=O)c5c(NCCNCCOCCOCCOCCOCCO)cc(OC)c(c6c(OC)cc(O)c(c1=O)c63)c54)C=C(C)C2C(C)=O` (stereo not drawn) [HB-5c-PEG4]: the singlet oxygen yield in data set [1] was 35%. Further, in data set [2], the maximum absorption wavelength is 628 nm and the molar extinction coefficient is 31,500 M^−1cm^−1.

`COc1c(O)c2c(=O)cc(OC)c3c4c(OC)cc(=O)c5c(NC(CC(N)=O)C(=O)O)c(NC(CC(N)=O)C(=O)O)c6c(c(c1C(C(C)=O)C(C)=C6)c23)c54` (stereo not drawn) [HB-26a] had a singlet oxygen yield in data set [1] of 20%. Also, in data set [2], the maximum absorption wavelength was found to be 614 nm and the molar extinction coefficient is given as 20,500 M^−1cm^−1.

In data set [1], `COc1c2c3c4c(c(NCC[N+]56CC[N+](C)(CC5)CC6)c(=O)c5c(O)cc(OC)c(c6c(OC)cc(NCC[N+]78CC[N+](C)(CC7)CC8)c(c1=O)c63)c54)C=C(C)C2C(C)=O` (stereo not drawn) [HB-41d] registered a singlet oxygen yield of 28%. Also, in data set [2], the maximum absorption wavelength worked out at 625 nm and the molar extinction coefficient is 30,500 M^−1cm^−1.
